{"source": "PubChem BioAssay AID488890", "about": "(Southern Research Specialized Biocontainment Screening …, 2010)", "note": "Results filed as inconclusive are left out. Activity calls are given as the source filed them. How the calls were made is not given here."}
{"system": "Mycobacterium tuberculosis non-replicating, growth inhibition", "assay": "growth inhibition of non-replicating M. tuberculosis (AID 488890)"}
{"molecule": "CSc1ccc(CNc2ncc(-c3cccc([N+](=O)[O-])c3)n2C)cc1", "IC50": "21.1 µM (inactive)"}
{"molecule": "CCOC(=O)COc1ccc(C(=O)Nc2cccc(Cl)c2C)cc1", "IC50": "0.23 µM"}
{"molecule": "COC(=O)COc1ccc2c(-c3cccc([N+](=O)[O-])c3)cc(=O)oc2c1", "IC50": "1.84 µM"}
{"molecule": "O=C(NCc1nnc(SC/C=C/c2ccccc2)o1)c1ccco1", "IC50": "4.25 µM"}
{"molecule": "Cc1ccc(C(=O)C=CNNC(=O)c2ccccc2)cc1", "IC50": "2.15 µM"}
{"molecule": "CCn1nnc(NC(=O)c2sc3ccccc3c2Cl)n1", "IC50": "28.5 µM (inactive)"}
{"molecule": "O=C(CCN1C(=O)/C(=C/c2ccccc2Cl)SC1=S)N1CCCC1", "IC50": "7.03 µM"}
{"molecule": "CC(C)(C)NC(=O)COC(=O)c1snc(C(=O)NC2CCCCC2)c1N", "IC50": "1.64 µM"}
{"molecule": "S=c1[nH]cnc2sc(-c3ccccc3)cc12", "IC50": "33.3 µM (inactive)"}
{"molecule": "COc1cccc2[nH]c3c(Cl)ncnc3c12", "IC50": "17.4 µM (inactive)"}
{"molecule": "Clc1ccc(OCCOCCN2CCc3ccccc3C2)c(Cl)c1", "IC50": "11.2 µM (inactive)"}
{"molecule": "Cc1ccc(C)c(-c2nnc(NC(=O)COc3ccccc3)o2)c1", "IC50": "1.29 µM"}
{"molecule": "CCCCN(CC)S(=O)(=O)c1ccc(C(=O)Nc2nnc(-c3cccs3)o2)cc1", "IC50": "11.3 µM (inactive)"}
{"molecule": "CCc1ccc(NC(=O)C(=O)NNC(=O)c2cccc(OC)c2)cc1", "IC50": "1.06 µM"}
{"molecule": "O=C(OCC(=O)N1CCN(c2ccccc2)CC1)c1cnc(Cl)c(Cl)c1", "IC50": "4.72 µM"}
{"molecule": "c1ccc(OCc2nn3c(-c4ccccn4)nnc3s2)cc1", "IC50": "23 µM (inactive)"}
{"molecule": "C/C(=N/NC(=O)c1ccco1)c1ccc(Br)s1", "IC50": "23 µM (inactive)"}
{"molecule": "COC(=O)COc1ccc(-c2ccc(F)cc2)cc1C=O", "IC50": "5.82 µM"}
{"molecule": "CC(C)OC(=O)COc1ccc(-c2ccccc2)cc1", "IC50": "3.25 µM"}
{"molecule": "O=C(Nc1ccccn1)c1ccc([N+](=O)[O-])o1", "IC50": "0.77 µM"}
{"molecule": "C/C(=N\\NC(=O)c1ccc(CN2CCc3ccccc3C2)cc1)c1ccccc1O", "IC50": "0.7 µM"}
{"molecule": "O=C(N/N=C/c1cccc2cccnc12)[C@H]1C[C@@H]1c1ccccc1", "IC50": "13.1 µM (inactive)"}
{"molecule": "Cc1ccc(NC(C)C(=O)N/N=C/c2ccc([N+](=O)[O-])s2)cc1", "note": "(stereo unspecified)", "IC50": "5.74 µM"}
{"molecule": "O=C(COC(=O)c1ccc(O)cc1O)c1ccc2c(c1)OCO2", "IC50": "25.9 µM (inactive)"}
{"molecule": "Cc1ccc(-c2cc(C(F)(F)F)n3nc(C(=O)NCCCn4ccnc4)cc3n2)cc1C", "IC50": "14.1 µM (inactive)"}
{"molecule": "COc1ccc(C(C#N)=C2C=CC(=NO)C=C2)cc1", "IC50": "16 µM (inactive)"}
{"molecule": "O=C(N/N=C/c1ccc(OC(=O)c2ccco2)cc1)c1ccccn1", "IC50": "6.05 µM"}
{"molecule": "COC(=O)COc1cccc(NC(=O)COc2ccccc2)c1", "IC50": "7.75 µM"}
{"molecule": "CN(C)CC(C(=O)c1ccccc1)c1ccccc1", "note": "(stereo unspecified)", "IC50": "2.83 µM"}
{"molecule": "CCOC(=O)COc1ccc2c3c(c(=O)oc2c1C)CCC3", "IC50": "14 µM (inactive)"}
{"molecule": "O=C(CN1CCCCC1)Nc1nnc(-c2ccc([N+](=O)[O-])cc2)s1", "IC50": "11.7 µM (inactive)"}
{"molecule": "CCOC(=O)CCNC(=O)c1ccc2nc(C3CCCCC3)oc2c1", "IC50": "28.8 µM (inactive)"}
{"molecule": "CC[n+]1c(/C=C(\\C)Nc2ccccc2)sc2ccccc21", "IC50": "6.34 µM"}
{"molecule": "COc1ccc(CN=C2NN=C(c3ccc(Cl)cc3)CS2)cc1", "IC50": "13.8 µM (inactive)"}
{"molecule": "O=C(Nc1ccccc1)c1ccc(Br)o1", "IC50": "14 µM (inactive)"}
{"molecule": "Cc1cccc(Cn2ccc(NC(=O)c3ccc4c(c3)OCO4)n2)c1", "IC50": "4.51 µM"}
{"molecule": "O=C(Nc1ncc([N+](=O)[O-])s1)c1cccs1", "IC50": "11.2 µM (inactive)"}
{"molecule": "CCCN(CCC)S(=O)(=O)c1ccc(C(=O)Nc2nnc(-c3cccc(OC)c3)o2)cc1", "IC50": "11.3 µM (inactive)"}
{"molecule": "Cc1ccc(-c2nnc(NC3CCCC3)s2)cc1", "IC50": "23.8 µM (inactive)"}
{"molecule": "CCCOC(=O)c1ccc(NC(=O)c2ccccc2OC)cc1", "IC50": "18.1 µM (inactive)"}
{"molecule": "Cc1nc(Cl)nc(N(C)c2ccccc2)c1[N+](=O)[O-]", "IC50": "9.3 µM"}
{"molecule": "O=C1c2cccc3cc([N+](=O)[O-])cc(c23)C(=O)N1c1ccccc1O", "IC50": "15.1 µM (inactive)"}
{"molecule": "CNc1nc(-c2ccccn2)nnc1-c1ccccc1", "IC50": "16.2 µM (inactive)"}
{"molecule": "c1ccc2[nH]c(NC3=NCCC3)nc2c1", "IC50": "19.2 µM (inactive)"}
{"molecule": "O=C(c1ccc(Cl)cc1)N1N=C(c2ccccn2)CC1(O)C(F)(F)F", "note": "(stereo unspecified)", "IC50": "5.51 µM"}
{"molecule": "CCOC(=O)C1(O)CC(C)=NN1C(=O)c1cccc(Br)c1", "note": "(stereo unspecified)", "IC50": "1.42 µM"}
{"molecule": "Cc1cccc(NC(=O)c2ccc(OC3CSC3)cc2)c1", "IC50": "28.7 µM (inactive)"}
{"molecule": "N#Cc1nc(-c2ccc(OCc3ccccc3)cc2)oc1NCCCn1ccnc1", "IC50": "15.4 µM (inactive)"}
{"molecule": "CCOC(=O)c1c(C)nc2c3ccccc3ccn12", "IC50": "13.3 µM (inactive)"}
{"molecule": "O=C(Nc1ncc2c(n1)-c1ccccc1OC2)c1ccc(F)cc1", "IC50": "4.39 µM"}
{"molecule": "Cc1cc(Br)ccc1OCCCCN1CCC(C)CC1", "IC50": "9.63 µM"}
{"molecule": "Cc1ccc(OC(=O)c2sc3ncn(C)c(=O)c3c2C)cc1", "IC50": "14.2 µM (inactive)"}
{"molecule": "Cc1cc(C)n(-c2nc(NCCCO)c3c4c(sc3n2)CCCC4)n1", "IC50": "10.5 µM (inactive)"}
{"molecule": "O=C(Nc1ccccc1)c1nnsc1S(=O)c1ccc(Cl)cc1", "note": "(stereo unspecified)", "IC50": "0.34 µM"}
{"molecule": "O=C(Nc1cc(C(F)(F)F)ccc1-n1cncn1)c1ccc([N+](=O)[O-])o1", "IC50": "17.9 µM (inactive)"}
{"molecule": "Brc1ccc(OCCCCN2CCCCC2)cc1", "IC50": "41.7 µM (inactive)"}
{"molecule": "COCCCNC(=O)COC(=O)c1ccc(-c2nc3ccccc3s2)s1", "IC50": "5.37 µM"}
{"molecule": "COc1cc(Cl)cc(/C=N/NC(N)=O)c1O", "IC50": "10.2 µM (inactive)"}
{"molecule": "C#CCSc1nnc(-c2ccc(C)cc2)o1", "IC50": "0.82 µM"}
{"molecule": "COc1ccc(C(=O)NNC(=S)NC(=O)c2cccc([N+](=O)[O-])c2)cc1", "IC50": "11.8 µM (inactive)"}
{"molecule": "O=C(Nc1ccc(N2CCN(C(=O)c3ccco3)CC2)c(Cl)c1)c1cccs1", "IC50": "9.56 µM"}
{"molecule": "O=C(NC1=NCCS1)c1ccc(-c2ccc(Cl)cc2)o1", "IC50": "11.9 µM (inactive)"}
{"molecule": "CC(=O)OCCNc1cc(Sc2nc3ccccc3[nH]2)c2nonc2c1[N+](=O)[O-]", "IC50": "2.41 µM"}
{"molecule": "CC(NCCCOc1cccc2ccccc12)c1ccccc1", "note": "(stereo unspecified)", "IC50": "15.5 µM (inactive)"}
{"molecule": "CC1=Nc2ccccc2/C1=C/c1sc(=N)n(-c2nccs2)c1O", "IC50": "1.51 µM"}
{"molecule": "O=C(CCCSc1nc2ccccc2s1)NCc1ccco1", "IC50": "10.7 µM (inactive)"}
{"molecule": "COc1ccc(C(=O)N/N=C(\\c2ccccc2)c2ccccn2)cc1", "IC50": "3.27 µM"}
{"molecule": "O=[N+]([O-])c1cc(Cl)cc(/C=N\\Nc2ccccn2)c1O", "IC50": "1.18 µM"}
{"molecule": "CCCn1nnnc1NC(=O)c1cc(Cl)ccc1Cl", "IC50": "6.8 µM"}
{"molecule": "COc1ccc(C(=O)C=CNNC(=O)c2ccc(Cl)cc2)cc1", "IC50": "0.48 µM"}
{"molecule": "Cc1ccc(NCCC(=O)c2cccs2)cc1", "IC50": "2.33 µM"}
{"molecule": "CCN(CC)c1ccc(NC2CC(=O)N(CCc3ccc(OC)cc3)C2=O)cc1", "note": "(stereo unspecified)", "IC50": "25.6 µM (inactive)"}
{"molecule": "Cc1onc(-c2ccccc2)c1C(=O)O/N=C(\\N)c1ccc([N+](=O)[O-])o1", "IC50": "25.8 µM (inactive)"}
{"molecule": "O=C1CC(N2CCSCC2)C(=O)N1CCc1ccccc1", "note": "(stereo unspecified)", "IC50": "19.1 µM (inactive)"}
{"molecule": "CC(C)NC(=O)C1COc2ccccc2O1", "note": "(stereo unspecified)", "IC50": "36.5 µM (inactive)"}
{"molecule": "O=C(Nc1ccccc1F)c1ccc([N+](=O)[O-])s1", "IC50": "0.78 µM"}
{"molecule": "Cc1ccc(N=N/C(=C\\O)C(=O)c2ccncc2)cc1", "IC50": "10.1 µM (inactive)"}
{"molecule": "O=C(COC(=O)c1ccccc1)NC12CC3CC(CC(C3)C1)C2", "IC50": "24 µM (inactive)"}
{"molecule": "CCOC(=O)c1cc([N+](=O)[O-])c([N+](=O)[O-])cc1NC(C)=O", "IC50": "2.44 µM"}
{"molecule": "C=CCNc1nc(C(=O)OCC(=O)c2cccc(Br)c2)cs1", "IC50": "20.8 µM (inactive)"}
{"molecule": "CC(=O)Oc1c(C)cc(Cl)cc1C(=O)Nc1ccc([N+](=O)[O-])cc1Cl", "IC50": "2.71 µM"}
